Laboratory results published in PubChem BioAssay (NCI).
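96-well plates; 48 h exposure; 5 concentrations. Endpoints by linear interpolation between flanking doses. Not reached: highest tested concentration assigned. GI50 marks 50% less growth. At the TGI there is no net growth.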

Tests used:
Assay in all cases: inhibition of tumour cell growth, NCI panel, 48 h
MOLT-4 leukemia = system: MOLT-4 leukemia
HCC-2998 colon = system: HCC-2998 colon
CCRF-CEM leukemia = system: CCRF-CEM leukemia
SF-268 CNS = system: SF-268 CNS
MCF7 breast = system: MCF7 breast
COLO 205 colon = system: COLO 205 colon
KM12 colon = system: KM12 colon
TK-10 renal = system: TK-10 renal
OVCAR-3 ovarian = system: OVCAR-3 ovarian
SN12C renal = system: SN12C renal
SF-539 CNS = system: SF-539 CNS
BT-549 breast = system: BT-549 breast
IGROV1 ovarian = system: IGROV1 ovarian
HL-60(TB) leukemia = system: HL-60(TB) leukemia
HCT-116 colon = system: HCT-116 colon
A549 NSCLC = system: A549 NSCLC
HT29 colon = system: HT29 colon
HCT-15 colon = system: HCT-15 colon
HS 578T breast = system: HS 578T breast
A498 renal = system: A498 renal
T-47D breast = system: T-47D breast
UACC-257 melanoma = system: UACC-257 melanoma
SF-295 CNS = system: SF-295 CNS
OVCAR-5 ovarian = system: OVCAR-5 ovarian
LOX IMVI melanoma = system: LOX IMVI melanoma
OVCAR-4 ovarian = system: OVCAR-4 ovarian
ACHN renal = system: ACHN renal
SNB-19 CNS = system: SNB-19 CNS
SK-MEL-2 melanoma = system: SK-MEL-2 melanoma
K-562 leukemia = system: K-562 leukemia
MDA-MB-231 breast = system: MDA-MB-231 breast
MDA-MB-435 = system: MDA-MB-435
NCI-H522 lung = system: NCI-H522 lung
OVCAR-8 ovarian = system: OVCAR-8 ovarian
SW-620 colon = system: SW-620 colon
DU-145 prostate = system: DU-145 prostate
MALME-3M melanoma = system: MALME-3M melanoma
EKVX NSCLC = system: EKVX NSCLC
PC-3 prostate = system: PC-3 prostate
NCI/ADR-RES ovarian = system: NCI/ADR-RES ovarian
HOP-62 NSCLC = system: HOP-62 NSCLC
RXF 393 renal = system: RXF 393 renal
M14 melanoma = system: M14 melanoma
NCI-H23 lung = system: NCI-H23 lung
NCI-H226 lung = system: NCI-H226 lung
NCI-H460 lung = system: NCI-H460 lung
RPMI-8226 leukemia = system: RPMI-8226 leukemia
U251 CNS = system: U251 CNS
SK-OV-3 ovarian = system: SK-OV-3 ovarian
SK-MEL-5 melanoma = system: SK-MEL-5 melanoma
HOP-92 NSCLC = system: HOP-92 NSCLC
SK-MEL-28 melanoma = system: SK-MEL-28 melanoma
UACC-62 melanoma = system: UACC-62 melanoma
MDA-MB-468 breast = system: MDA-MB-468 breast
UO-31 renal = system: UO-31 renal
786-0 renal = system: 786-0 renal
SNB-75 CNS = system: SNB-75 CNS
CAKI-1 renal = system: CAKI-1 renal

In the case of `Cn1cc(-c2cc(N)n3nc(-c4cn(C)c5ncc(Br)cc45)cc3n2)c2cc(Br)cnc21`, the GI50 (MOLT-4 leukemia) is reported as 1530 nM, the TGI (MOLT-4 leukemia) is reported as 4.37 µM and the GI50 (HCC-2998 colon) is reported as 1730 nM. It also gave a TGI (HCC-2998 colon) of 3.44 µM, a GI50 (CCRF-CEM leukemia) of 1430 nM and a TGI (CCRF-CEM leukemia) of 3.72 µM. For the same molecule, the GI50 (SF-268 CNS) was 7.52 µM, the TGI (SF-268 CNS) was 38 µM and the GI50 (MCF7 breast) was 1720 nM. For the same molecule, the TGI (MCF7 breast) was 4.12 µM, the GI50 (COLO 205 colon) was 4.29 µM and the TGI (COLO 205 colon) was 31.8 µM. It also gave a GI50 (KM12 colon) of 1830 nM, a TGI (KM12 colon) of 5.81 µM and a GI50 (TK-10 renal) of 1790 nM. For the same molecule, the TGI (TK-10 renal) was 4.03 µM, the GI50 (OVCAR-3 ovarian) was 1720 nM and the TGI (OVCAR-3 ovarian) was 3.21 µM. It also gave a GI50 (SN12C renal) of 10.6 µM, a TGI (SN12C renal) of 34.9 µM and a GI50 (SF-539 CNS) of 1710 nM. The TGI (SF-539 CNS) was 3.18 µM, the GI50 (BT-549 breast) was 3.38 µM and the TGI (BT-549 breast) was 14.1 µM. The GI50 (IGROV1 ovarian) was 4.65 µM, the TGI (IGROV1 ovarian) was 18.5 µM and the GI50 (HL-60(TB) leukemia) was 2000 nM. For the same molecule, the TGI (HL-60(TB) leukemia) was 4.94 µM, the GI50 (HCT-116 colon) was 1720 nM and the TGI (HCT-116 colon) was 3.3 µM. The GI50 (A549 NSCLC) was 2070 nM, the TGI (A549 NSCLC) was 4.97 µM and the GI50 (HT29 colon) was 1800 nM. The TGI (HT29 colon) was 3.44 µM, the GI50 (HCT-15 colon) was 1590 nM and the TGI (HCT-15 colon) was 3.24 µM. The GI50 (HS 578T breast) was 3.19 µM, the TGI (HS 578T breast) was 15.7 µM and the GI50 (A498 renal) was > 100 µM. The TGI (A498 renal) was > 100 µM, the GI50 (T-47D breast) was 2350 nM and the TGI (T-47D breast) was 9.43 µM. For the same molecule, the GI50 (UACC-257 melanoma) was 2280 nM, the TGI (UACC-257 melanoma) was 5.33 µM and the GI50 (SF-295 CNS) was 1860 nM. It also gave a TGI (SF-295 CNS) of 4.02 µM, a GI50 (OVCAR-5 ovarian) of 10.5 µM and a TGI (OVCAR-5 ovarian) of 33.9 µM. The GI50 (LOX IMVI melanoma) was 1590 nM, the TGI (LOX IMVI melanoma) was 2960 nM and the GI50 (OVCAR-4 ovarian) was 2110 nM. It also gave a TGI (OVCAR-4 ovarian) of 4.57 µM, a GI50 (ACHN renal) of 1960 nM and a TGI (ACHN renal) of 3.72 µM. The GI50 (SNB-19 CNS) was 1950 nM, the TGI (SNB-19 CNS) was 4.05 µM and the GI50 (SK-MEL-2 melanoma) was 2010 nM. The TGI (SK-MEL-2 melanoma) was 4.4 µM, the GI50 (K-562 leukemia) was 2340 nM and the TGI (K-562 leukemia) was 8.45 µM. It also gave a GI50 (MDA-MB-231 breast) of 2590 nM, a TGI (MDA-MB-231 breast) of 9.79 µM and a GI50 (MDA-MB-435) of 1950 nM. For the same molecule, the TGI (MDA-MB-435) was 4.29 µM, the GI50 (NCI-H522 lung) was 2270 nM and the TGI (NCI-H522 lung) was 5.52 µM. It also gave a GI50 (OVCAR-8 ovarian) of 2490 nM, a TGI (OVCAR-8 ovarian) of 6.67 µM and a GI50 (SW-620 colon) of 1770 nM. It also gave a TGI (SW-620 colon) of 3.59 µM, a GI50 (DU-145 prostate) of 2540 nM and a TGI (DU-145 prostate) of 6.77 µM. For the same molecule, the GI50 (MALME-3M melanoma) was 1930 nM, the TGI (MALME-3M melanoma) was 3.49 µM and the GI50 (EKVX NSCLC) was 2180 nM. It also gave a TGI (EKVX NSCLC) of 8.92 µM, a GI50 (PC-3 prostate) of 2490 nM and a TGI (PC-3 prostate) of 8.41 µM. For the same molecule, the GI50 (NCI/ADR-RES ovarian) was 2040 nM, the TGI (NCI/ADR-RES ovarian) was 4.7 µM and the GI50 (HOP-62 NSCLC) was 2360 nM. It also gave a TGI (HOP-62 NSCLC) of 6.63 µM, a GI50 (RXF 393 renal) of 2620 nM and a TGI (RXF 393 renal) of 6.9 µM. For the same molecule, the GI50 (M14 melanoma) was 1650 nM, the TGI (M14 melanoma) was 3.16 µM and the GI50 (NCI-H23 lung) was 1920 nM. For the same molecule, the TGI (NCI-H23 lung) was 3.76 µM, the GI50 (NCI-H226 lung) was 8.32 µM and the TGI (NCI-H226 lung) was 26.4 µM. The GI50 (NCI-H460 lung) was 1910 nM, the TGI (NCI-H460 lung) was 3.89 µM and the GI50 (RPMI-8226 leukemia) was 2230 nM. The TGI (RPMI-8226 leukemia) was 5.87 µM, the GI50 (U251 CNS) was 1930 nM and the TGI (U251 CNS) was 3.89 µM. The GI50 (SK-OV-3 ovarian) was 19.1 µM, the TGI (SK-OV-3 ovarian) was 36.4 µM and the GI50 (SK-MEL-5 melanoma) was 3.95 µM. The TGI (SK-MEL-5 melanoma) was 16.8 µM, the GI50 (HOP-92 NSCLC) was 1710 nM and the TGI (HOP-92 NSCLC) was 6.42 µM. For the same molecule, the GI50 (SK-MEL-28 melanoma) was 1770 nM, the TGI (SK-MEL-28 melanoma) was 3.35 µM and the GI50 (UACC-62 melanoma) was 1580 nM. It also gave a TGI (UACC-62 melanoma) of 3.03 µM, a GI50 (MDA-MB-468 breast) of 1540 nM and a TGI (MDA-MB-468 breast) of 2950 nM. The GI50 (UO-31 renal) was 6.81 µM, the TGI (UO-31 renal) was 22.1 µM and the GI50 (786-0 renal) was 1770 nM. The TGI (786-0 renal) was 3.46 µM, the GI50 (SNB-75 CNS) was 8.48 µM and the TGI (SNB-75 CNS) was 26.3 µM. It also gave a GI50 (CAKI-1 renal) of 3.68 µM and a TGI (CAKI-1 renal) of 15.4 µM.
